Data: US7893252B2, “Selectively depolymerized galactomannan polysaccharide” (priority 2003, dated 2011)

Tests used:
[1] = test system: human colon tumor COLO 205; assay: Efficacy study in COLO 205 human colon tumor xenografts, q4d×3 (Example 3); conditions: i.v. q4d×3, 5-FU 75 mg/kg/dose, GM 120 mg/kg/dose
Experimental: The both studies were conducted as follows.
5-FU alone was administered i.v. on the same q4d×3 treatment schedule at doses of 75 mg/kg/dose (225 mg/m2/dose). 5-FU was formulated in saline fresh on each day of treatment at a concentration of 3.75 mg/mL, at pH 9.2. […] Both individual compounds and their mixture were administered according to exact body weight with injection volume being 0.2 mL/10 g body weight.
There were a total of four groups of 10 animals each, s.c.-implanted with COLO 205 human colon tumor xenografts.

[2] = test system: rats; assay: Acute toxicology, single IV dose in rats; assay type: in vivo
Experimental: Acute toxicology studies of the galactomannan of the present invention were performed in mice, rats and dogs and subchronic toxicology studies were performed in rats and dogs. The following is a summary of the findings of these studies:
In rats (n=5/sex/group), single IV doses of 140 mg/kg (840 mg/m2) 5-FU, 72 mg/kg (432 mg/m2) galactomannan or 140/72 mg/kg of the combination produced no deaths in any of the groups.
Toxic changes in body weight, feed consumption, and hematology were less severe in the rats injected with the combination, versus those injected with 5-FU alone.

[3] = test system: beagle dogs; assay: 28-day canine study (Example 9); assay type: in vivo; conditions: galactomannan at 500 mg/m2, daily IV for four consecutive days
Experimental: In a 28-day canine study, single daily IV doses of saline, 6 mg/kg (120 mg/m2) 5-FU and ([…] (240 mg/m2) galactomannan or 4/2 mg/kg (80/40 mg/m2), 6/3.2 mg/kg (120/64 mg/m2) or 6/6 mg/kg (120/120 mg/m2) 5-FU/galactomannan were injected for four consecutive days to six groups of beagle dogs Mortality occurred in 13 of 48 dogs (five moribund sacrifices and eight found dead) between Study Days 2 and 5 (4/4 males on 5-FU; 3/4 males in the 4/2 mg/kg 5-FU/galactomannan group; 2/4 males and 1/4 females in the 6/3.2 and 6/6 mg/kg 5-FU/galactomannan groups, respectively).
Adverse effects in 5-FU groups included ataxia, prostration, vocalization, convulsions, tremors, hypersensitivity to touch, aggressive behavior (resulting in only three doses being given to the 6/3.2 5-FU/galactomanna group), emesis, salivation, soft stools and decreased red cell parameters and platelet counts. […] At the day 5 necropsy, treatment-related histological changes were largely limited to the 5-FU females. At day 29 necropsy, there were no remarkable changes in the survivors.

[4] = Biodistribution of 3H-galactomannan in tumor-bearing and non-tumor bearing mice (Example 6); assay type: in vivo
Experimental: The biodistribution of 3H-galactomannan was studied in tumor-bearing and non-tumor bearing mice. […] 3H-galactomannan elimination from plasma, kidneys, lungs and tumor in the various groups was rapid, an average of approximately 50% of the one-hour radioactivity was detected at six hours except in tumor-bearing mice, where the radioactivity in tumor samples from mice treated with 6 or 60 mg/kg of 3H-galactomannan with or without 5-FU averaged approximately 72% remaining after six hours. Elimination of 3H-galactomannan from the liver was more gradual than in other tissues, and on average, more than 50% of the radioactivity detected at one hour after injection was still present at 24 hours.
Male NCr-nu athymic nude mice (Charles Rivers Laboratories, Raleigh, N.C.) were acclimated and housed as described above. The first set of animals (a total of 18 mice) were non-tumored mice. The second set of 18 mice were tumored as follows. […]
Tritiation of GM from G. triacanthos was performed as follows. […] Total yield of the labeled GM was 3.8 mCi, specific radioactivity was 300 μCi/mg.
All 36 mice, divided into 18 groups, were given a single intravenous injection of cold or tritiated GM (either 6 or 60 mg/kg) or of a combination of GM (60 mg/kg, cold or tritiated) and 5-FU (114 mg/kg) on the same day. Non-labeled GM was formulated in saline, and tritiated GM was added to the solution so that each animal received 10 μCi of radioactivity. […] All dosing solutions (100 μL each) were counted in duplicate. […]
After weighing, livers were dissolved in 10 mL of Soluene 350 (Packard Instruments, Downers Grove, Ill.) and incubated first for 4 hrs at 50° C., and at room temperature, until tissues were solubilized. One millilter of the resulting solution was counted in a scintillation counter as a single sample. Based on tissue weight and the sample volume, the number of μCi of tritiated GM per gram of tissue was calculated.
Kidneys were treated in the same manner, but dissolved in 2 mL of Soluene. […] Plasma samples (50 μL each) were placed direct into Safety Solve and counted as a single sample. […]

Substance: (((1,4)-linked β-D-mannopyranose)17-((1,6)-linked-β-D-galactopyranose)10)12) [GM]
- mean survival time [1]: 19.2 days
- median to quadrupling of tumor volume [1]: 15.5 days
- median tumor volume after 56 days of the study [1]: 1813 mm3
- tolerability [1]: well tolerated
- tumor regression after 56 days of the study [1]: no tumor regression
- treatment-related deaths ([1]; 10 mice per group, within two weeks): No deaths
- deaths ([2]; 5-FU 140 mg/kg, galactomannan 72 mg/kg, combination 140/72 mg/kg, n=5/sex/group): no deaths
- untoward effects ([2]; galactomannan 72 mg/kg (432 mg/m2) alone): no significant untoward effects
- adverse effects [3]: no observed adverse effects
- increase of the amount of bound galactomannan for the 10-times higher dose ([4]; 60 mg/kg versus 6 mg/kg): 10 fold
- saturation of binding ([4]; 6 to 60 mg/kg (18 to 180 mg/m2)): did not reach saturation
- binding to liver, kidney, lung, tumor, and plasma ([4]; single i.v. injection, 6 or 60 mg/kg): freely binds
